In patent US20230044787A1, “TRICYCLE DIHYDROIMIDAZOPYRIMIDONE DERIVATIVE, PREPARATION METHOD THEREOF, PHARMACEUTICAL COMPOSITION AND USE THEREOF” (priority 2019, published 2023):

Each molecule was assayed against T1, Lp-PLA2 (Homo sapiens, UniProt Q13093) (assay: Lipoprotein-associated phospholipase A2 (Lp-PLA2) human plasma assay (Thio-PAF assay)). Conditions: Comparison of activity data (I); pooled human plasma, 2-thio-PAF substrate, 30-min pre-incubation.
T1 construct: aliquoted and thawed 40 μL of pooled human plasma was previously added; from tissue; host or cells: pooled human plasma
T1 sequence (Q13093 22-441): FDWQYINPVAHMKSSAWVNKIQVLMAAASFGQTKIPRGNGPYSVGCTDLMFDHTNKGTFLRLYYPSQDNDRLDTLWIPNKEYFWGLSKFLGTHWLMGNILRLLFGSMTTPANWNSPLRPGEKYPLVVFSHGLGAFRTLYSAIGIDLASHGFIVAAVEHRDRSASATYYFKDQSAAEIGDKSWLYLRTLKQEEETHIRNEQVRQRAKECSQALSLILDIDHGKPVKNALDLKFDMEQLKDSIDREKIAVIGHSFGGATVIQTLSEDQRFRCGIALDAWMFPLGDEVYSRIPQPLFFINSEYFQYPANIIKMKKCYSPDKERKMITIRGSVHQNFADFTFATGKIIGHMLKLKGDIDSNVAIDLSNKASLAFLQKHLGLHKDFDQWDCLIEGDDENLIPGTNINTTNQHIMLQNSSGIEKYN
Assay type: biochemical
Description: Lipoprotein-Associated Phospholipase A2 (Lp-PLA2) Human Plasma Assay
The amount of sulfhydryl groups is continuously determined by the reaction with CPM (7-diethylamino-3-(4′-maleimidophenyl)-4-methylcoumarin), and the CPM is a maleimide of which fluorescence increases after Michael addition of sulfhydryl group. This assay can detect Lp-PLA2 activity in human plasma, as determined by specific inhibition of Lp-PLA2 inhibitors.
Thio-PAF assay was performed as quenched 75 μL assay. Compound source plate was prepared for each compound by preparing 1:3 (by volume) serial dilutions in pure DMSO in a 96-well microplate. The compound on the source plate was diluted 20-fold by transferring 3 μL of the compound from the compound source plate into a 96-well microplate pre-added with 57 μL of assay buffer by Rainin multichannel pipette. The assay buffer described above consisted of 50 mM HEPES, pH 7.4, 150 mM NaCl, 1 mM CHAPS. 1 μL of the 20-fold diluted compound was transferred by Rainin multichannel pipette into a 96-well Greiner 655076 (black) microplate to which aliquoted and thawed 40 μL of pooled human plasma was previously added. The plate was shaken for 20 seconds on a microplate shaker to mix well. After a 30-min pre-incubation at room temperature, 10 μL of substrate solution was added to the 96-well Greiner 655076 (black) microplate by Rainin multichannel pipette, in which the substrate solution contained 2.5 mM 2-thio-PAF [from ethanol stock], 32 μM CPM [from DMSO stock], and 3.2 mM NEM (N-ethylmaleimide) [freshly prepared in DMSO per experiment] in assay buffer consisting of 50 mM HEPES, pH 7.4; 150 mM NaCl; 1 mM CHAPS. After 2 min, the reaction was quenched with […] of 5% trifluoroacetic acid (TFA) in water. The plate was centrifuged at 2000 rpm for 1 minute. The plate was read at ex:380/em:485 using a Biotek Synergy H1 (H1MF) microplate reader. IC50 data, curves and QC analysis were performed using GraphPad Prism 6.0 and Excel.
`O=c1nc(OCc2cc(F)c(F)c(F)c2)cc2n1CC1COCCN21` (racemic) [Corresponding racemate of Example 123 in WO2016011930A1, reference compound] was tested, and the IC50 was 63.3 nM.

Same assay, conditions: Lp-PLA2 human plasma assay (Thio-PAF), pooled human plasma, 30-min pre-incubation at room temperature
In the case of `O=c1nc(OCc2cc(F)c(Oc3ccnc(C(F)(F)F)c3)c(F)c2)cc2n1C[C@]13CO[C@H](CN21)C3` [Example 1], the IC50 is reported as 4.4 nM. `N#Cc1cc(COc2cc3n(c(=O)n2)CC24CCC(CC2)N34)ccc1Oc1cccc(C(F)(F)F)c1` [Example 2, 5-(((1-Oxo-7,8-dihydro-1H,6H,9H-6,8a-ethanopyrrolo[1′,2′:3,4]imidazo[1,2-c]pyrimidin-3-yl)oxy)methyl)-2-(3-(trifluoromethyl)phenoxy)benzonitrile] showed an IC50 of 2.6 nM. Molecule `O=c1nc(OCc2cc(F)c(Oc3ccc(Cl)c(C(F)(F)F)c3)c(F)c2)cc2n1C[C@]13CO[C@H](CN21)C3` [Example 4, (3S,11aR)-7-((4-(4-chloro-3-(trifluoromethyl)phenoxy)-3,5-difluorobenzyl)oxy)-3,4-dihydro-1H,9H,11H-3,11a-methanopyrimido[6′-,1′:2,3] imidazo[5,1-c][1,4]oxazin-9-one] has an IC50 of 2.5 nM. Work on `O=c1nc(OCc2cc(F)c(Oc3ccnc(OC(F)(F)F)c3)c(F)c2)cc2n1C[C@]13CO[C@H](CN21)C3` [Example 5, (3S,11aR)-7-((3,5-difluoro-4-((2-(trifluoromethoxy)pyridin-4-yl)oxy)benzyl)oxy)-3,4-dihydro-1H,9H,11H-3,11a-methanopyrimido[6′,1′:2,3] imidazo[5,1-c][1,4]oxazin-9-one] yielded an IC50 of 4.2 nM. `O=c1nc(OCc2cc(F)c(Oc3ccnc(Cl)c3)c(F)c2)cc2n1C[C@]13CO[C@H](CN21)C3` [Example 6, (3S,11aR)-7-((4-((2-chloropyridin-4-yl)oxy)-3,5-difluorobenzyl)oxy)-3,4-dihydro-1H,9H,11H-3,11a-methanopyrimido[6′,1′:2,3] imidazo[5,1-c][1,4]oxazin-9-one] gave an IC50 of 4.9 nM. With `O=c1nc(OCc2cc(F)c(Oc3cnc(C(F)(F)F)nc3)c(F)c2)cc2n1C[C@]13CO[C@H](CN21)C3` [Example 7, (3S,11aR)-7-((3,5-difluoro-4-((2-(trifluoromethyl)pyrimidin-5-yl)oxy)benzyl)oxy)-3,4-dihydro-1H,9H,11H-3,11a-methanopyrimido[6′,1′:2,3] imidazo[5,1-c][1,4]oxazin-9-one] the IC50 was 2.5 nM. For `O=c1nc(OCc2cc(F)c(Oc3cncc(C(F)(F)F)c3)c(F)c2)cc2n1C[C@]13CO[C@H](CN21)C3` [Example 8], the IC50 was 4.9 nM. Molecule `O=c1nc(OCc2cc(F)c(Oc3ccc(C(F)(F)F)nc3)c(F)c2)cc2n1C[C@]13CO[C@H](CN21)C3` [Example 9] has an IC50 of 6.5 nM. Work on `Cc1cc(Oc2c(F)cc(COc3cc4n(c(=O)n3)C[C@]35CO[C@H](CN43)C5)cc2F)ccn1` [Example 10, (3S,11aR)-7-((3,5-difluoro-4-((2-methyl-pyridin-4-yl)oxy)benzyl)oxy)-3,4-dihydro-1H,9H,11H-3,11a-methanopyrimido[6′,1′:2,3] imidazo[5,1-c][1,4]oxazin-9-one] yielded an IC50 of 6.7 nM. `Cn1cc(Oc2c(F)cc(COc3cc4n(c(=O)n3)C[C@]35CO[C@H](CN43)C5)cc2F)cn1` [Example 11, (3S,11aR)-7-((3,5-difluoro-4-((1-methyl-1H-pyrazol-4-yl)oxy)benzyl)oxy)-3,4-dihydro-1H,9H,11H-3,11a-methanopyrimido[6′,1′:2,3] imidazo[5,1-c][1,4]oxazin-9-one] showed an IC50 of 10.8 nM. `N#Cc1cc(Oc2ccc(COc3cc4n(c(=O)n3)C[C@]35CO[C@H](CN43)C5)cc2F)cc(C(F)(F)F)c1` [Example 12] showed an IC50 of 4.3 nM. For `O=c1nc(OCc2ccc(Oc3ccc(Cl)c(C(F)(F)F)c3)c(F)c2)cc2n1C[C@]13CO[C@H](CN21)C3` [Example 14, (3S,11aR)-7-((4-(4-chloro-3-(trifluoromethyl)phenoxy)-3-fluorobenzyl)oxy)-3,4-dihydro-1H,9H,11H-3,11a-methanopyrimido[6′,1′:2,3] imidazo[5,1-c][1,4]oxazin-9-one], the IC50 was 4.6 nM. Work on `O=c1nc(OCc2ccc(Oc3ccnc(C(F)(F)F)c3)cc2)cc2n1C[C@]13CO[C@H](CN21)C3` [Example 15, (3S,11aR)-7-((4-((2-(trifluoromethyl)pyridin-4-yl)oxy)benzyl)oxy)-3,4-dihydro-1H,9H,11H-3,11a-methanopyrimido[6′,1′:2,3] imidazo[5,1-c][1,4]oxazin-9-one] yielded an IC50 of 6.6 nM. Molecule `O=c1nc(OCc2ccc(Oc3ccc(Cl)c(C(F)(F)F)c3)cc2)cc2n1C[C@]13CO[C@H](CN21)C3` [Example 16, (3S,11aR)-7-((4-(4-chloro-3-(trifluoromethyl)phenoxy)benzyl)oxy)-3,4-dihydro-1H,9H,11H-3,11a-methanopyrimido[6′,1′:2,3] imidazo[5,1-c][1,4]oxazin-9-one] has an IC50 of 5.2 nM. For `O=c1nc(OCc2ccc(Oc3ccc(F)c(C(F)(F)F)c3)nc2)cc2n1C[C@]13CO[C@H](CN21)C3` [Example 17, (3S,11aR)-7-((6-(4-fluoro-3-(trifluoromethyl)phenoxy)pyridin-3-yl)methoxy)-3,4-dihydro-1H,9H,11H-3,11a-methanopyrimido[6′,1′:2,3] imidazo[5,1-c][1,4]oxazin-9-one], the IC50 was 32.4 nM. `N#Cc1cc(COc2cc3n(c(=O)n2)C[C@]24CO[C@H](CN32)C4)ccc1Oc1ccc(Cl)c(C(F)(F)F)c1` [Example 18, 5-((((3S,11aR)-9-oxo-3,4-dihydro-1H,9H,11H-3,11a-methanopyrimido[6′,1′:2,3]imidazo[5,1-c][1,4]oxazin-7-yl)oxy)methyl)-2-(4-chloro-3-(trifluoromethyl)phenoxy) benzonitrile] gave an IC50 of 3.5 nM. Molecule `N#Cc1cc(COc2cc3n(c(=O)n2)C[C@]24CO[C@H](CN32)C4)ccc1Oc1cccc(C(F)(F)F)c1` [Example 19, 5-((((3S,11aR)-9-oxo-3,4-dihydro-1H,9H,11H-3,11a-methanopyrimido[6′,1′:2,3]imidazo[5,1-c][1,4]oxazin-7-yl)oxy)methyl)-2-(3-(trifluoromethyl)phenoxy) benzonitrile] has an IC50 of 3.9 nM. For `N#Cc1cc(COc2cc3n(c(=O)n2)C[C@]24CO[C@H](CN32)C4)ccc1Oc1ccc(Cl)c(F)c1` [Example 20], the IC50 was 6.8 nM. Work on `N#Cc1cc(COc2cc3n(c(=O)n2)C[C@]24CO[C@H](CN32)C4)ccc1Oc1ccc(C(F)(F)F)cc1` [Example 21] yielded an IC50 of 6.4 nM. For `N#Cc1cc(COc2cc3n(c(=O)n2)C[C@]24CO[C@H](CN32)C4)ccc1Oc1ccnc(C(F)(F)F)c1` [Example 22, 5-((((3S,11aR)-9-oxo-3,4-dihydro-1H,9H,11H-3,11a-methanopyrimido[6′,1′:2,3]imidazo[5,1-c][1,4]oxazin-7-yl)oxy)methyl)-2-((2-(trifluoromethyl)pyridin-4-yl)oxy)benzonitrile], the IC50 was 3 nM. Molecule `O=c1nc(OCCc2ccc(Oc3ccc(Cl)c(C(F)(F)F)c3)cc2)cc2n1C[C@]13CO[C@H](CN21)C3` [Example 23, (3S,11aR)-7-(4-(4-chloro-3-(trifluoromethyl)phenoxy)phenethoxy)-3,4-dihydro-1H,9H,11H-3,11a-methanopyrimido[6′,1′:2,3] imidazo[5,1-c][1,4]oxazin-9-one] has an IC50 of 5 nM. Work on `O=c1nc(OCc2cc(F)c(F)c(F)c2)cc2n1C[C@]13CO[C@H](CN21)C3` [Example 24, (3S,11aR)-7-((3,4,5-trifluorobenzyl)oxy)-3,4-dihydro-1H,9H,11H-3,11a-methanopyrimido[6′,1′:2,3] imidazo[5,1-c][1,4]oxazin-9-one] yielded an IC50 of 13.2 nM.
